What is called GI50 is the concentration at which growth is held to half of that of the control. For orientation: TGI means the concentration giving total growth inhibition.

Some test systems named below: HT29 colon; SK-OV-3 ovarian; ACHN renal; HCT-15 colon; HL-60(TB) leukemia; MDA-MB-435; SK-MEL-5 melanoma; EKVX NSCLC; A498 renal; HS 578T breast.
Common to all, as to assay: DTP human tumour cell line panel, 48 h

SMILES strings stand for the structures.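 Exposure lasted 48 hours, with cells grown in 96-well plates and compounds tested at five concentrations. GI50 marks 50% less growth. TGI marks complete inhibition of growth.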

As to `C=CCN(CC=C)C(=O)[C@H](CC)[C@@H]1CC[C@@H](C)[C@@H]([C@H](C)[C@@H](O)[C@@H](C)C(=O)[C@H](CC)C2O[C@]3(C=C[C@@H](O)[C@]4(CC[C@@](C)([C@H]5CC[C@](O)(CC)[C@H](C)O5)O4)O3)[C@H](C)C[C@@H]2C)O1` (stereo not given in full), the GI50 is 3.12 µM with HT29 colon; 3.51 µM in the assay on SK-OV-3 ovarian; 2.9 µM in the assay with ACHN renal; 2.05 µM with HCT-15 colon; 2.09 µM in the assay with HL-60(TB) leukemia; 2.71 µM in the assay on MDA-MB-435. Also, the GI50 is 1.72 µM in the assay on SK-MEL-5 melanoma, 2.33 µM in the assay with EKVX NSCLC, 2.07 µM with A498 renal and 2.22 µM in the assay on HS 578T breast. Moreover, the TGI is 16.1 µM with HT29 colon; above 100 µM with SK-OV-3 ovarian; 11 µM in the assay on ACHN renal; 4.81 µM in the assay with HCT-15 colon; 4.76 µM in the assay on HL-60(TB) leukemia; 8.5 µM in the assay with MDA-MB-435. Moreover, the TGI was 3.15 µM in the assay with SK-MEL-5 melanoma, 9.07 µM in the assay with EKVX NSCLC, 5.32 µM in the assay on A498 renal and 6.27 µM with HS 578T breast.
As for `N#C/C(=C\c1cc2ccc(N3CCC3)cc2oc1=O)C(=O)N(CC(=O)O)CC(=O)O`, the GI50 with HT29 colon is above 100 µM; in the assay on SK-OV-3 ovarian it was above 100 µM; in the assay with ACHN renal, above 100 µM; in the assay on HCT-15 colon, 95.5 µM; with HL-60(TB) leukemia, above 100 µM; in the assay with MDA-MB-435, above 100 µM. In addition, the GI50 in the assay with SK-MEL-5 melanoma, with EKVX NSCLC, in the assay with A498 renal and in the assay with HS 578T breast was above 100 µM each time. For the same compound, the TGI in the assay with HT29 colon, with SK-OV-3 ovarian, with ACHN renal, in the assay with HCT-15 colon, in the assay on HL-60(TB) leukemia and with MDA-MB-435 was above 100 µM in each case. The TGI in the assay with SK-MEL-5 melanoma, in the assay with EKVX NSCLC, in the assay with A498 renal and in the assay with HS 578T breast was above 100 µM in each case.
Consider `c1ccc(C2CCCCC2)c(OCCCCCN2CCNCC2)c1`, for which the GI50 in the assay on HT29 colon was 1.6 µM; in the assay with SK-OV-3 ovarian, 6.51 µM; in the assay with ACHN renal it was 3.45 µM; in the assay on HCT-15 colon it was 1.83 µM; in the assay on HL-60(TB) leukemia, 1.72 µM; in the assay on MDA-MB-435, 1.69 µM. Moreover, the GI50 is 1.45 µM in the assay on SK-MEL-5 melanoma, 4.07 µM with EKVX NSCLC, 4.54 µM with A498 renal and 3.61 µM in the assay on HS 578T breast. The TGI stood at 4.9 µM in the assay with HT29 colon; 21.8 µM in the assay with SK-OV-3 ovarian; 13.2 µM with ACHN renal; 4.05 µM in the assay with HCT-15 colon; 3.94 µM in the assay on HL-60(TB) leukemia; 3.3 µM in the assay on MDA-MB-435. Moreover, the TGI was determined as 2.81 µM in the assay on SK-MEL-5 melanoma, 19.9 µM in the assay with EKVX NSCLC, 20.7 µM with A498 renal and 22.1 µM in the assay on HS 578T breast.
As to `C[C@H]1CN(C2COC2)CCN1c1ccc(Nc2cc(-c3ccnc(N4CCn5c(cc6c5CC(C)(C)C6)C4=O)c3CO)cn(C)c2=O)nc1`, the GI50 is 23.8 µM in the assay on HT29 colon; above 100 µM with SK-OV-3 ovarian; 30.2 µM in the assay with ACHN renal; 47 µM with HCT-15 colon; 16.6 µM with HL-60(TB) leukemia; 26.4 µM in the assay with MDA-MB-435. Further, the GI50 in the assay on SK-MEL-5 melanoma is 31.2 µM; in the assay on EKVX NSCLC, above 100 µM; in the assay with A498 renal, 10.3 µM; with HS 578T breast it was 27.7 µM. Moreover, the TGI was above 100 µM with HT29 colon; above 100 µM in the assay on SK-OV-3 ovarian; above 100 µM in the assay on ACHN renal; above 100 µM in the assay with HCT-15 colon; 47.2 µM in the assay on HL-60(TB) leukemia; above 100 µM in the assay with MDA-MB-435. In addition, the TGI in the assay with SK-MEL-5 melanoma is above 100 µM; in the assay with EKVX NSCLC it was above 100 µM; in the assay with A498 renal, 33.9 µM; in the assay with HS 578T breast it was above 100 µM.
Take `O=C1/C(=C/c2ccccc2O)N=C(c2ccccc2)N1c1cc(C(F)(F)F)ccc1Cl`: the GI50 with HT29 colon is above 100 µM; in the assay on SK-OV-3 ovarian, 43.7 µM; in the assay with ACHN renal it was 18.6 µM; in the assay with HCT-15 colon, 64.7 µM; with HL-60(TB) leukemia, above 100 µM; in the assay with MDA-MB-435, 22.1 µM. The GI50 with SK-MEL-5 melanoma is 62.2 µM; with EKVX NSCLC, 38.3 µM; with A498 renal, 59.4 µM; in the assay on HS 578T breast, 22.8 µM. In addition, the TGI in the assay with HT29 colon was above 100 µM; in the assay on SK-OV-3 ovarian it was above 100 µM; with ACHN renal, 51.4 µM; in the assay on HCT-15 colon, above 100 µM; with HL-60(TB) leukemia it was above 100 µM; in the assay with MDA-MB-435, above 100 µM. Besides, the TGI with SK-MEL-5 melanoma is above 100 µM; in the assay on EKVX NSCLC it was above 100 µM; in the assay on A498 renal, above 100 µM; in the assay on HS 578T breast, 60.3 µM.
Regarding `NCc1ccc(-c2nc(-c3ccc(Cl)c(O)c3)c(-c3ccncc3)[nH]2)cc1`, the GI50 in the assay on HT29 colon was above 25 µM; in the assay on SK-OV-3 ovarian, above 25 µM; in the assay on ACHN renal, above 25 µM; in the assay with HCT-15 colon, above 25 µM; in the assay with HL-60(TB) leukemia, 15.2 µM; with MDA-MB-435, 5.18 µM. The GI50 is above 15.4 µM in the assay with SK-MEL-5 melanoma, above 25 µM in the assay with EKVX NSCLC, above 25 µM in the assay with A498 renal and 11.9 µM with HS 578T breast. The TGI with HT29 colon, in the assay on SK-OV-3 ovarian, with ACHN renal, with HCT-15 colon, with HL-60(TB) leukemia and with MDA-MB-435 was above 25 µM throughout. Also, the TGI in the assay with SK-MEL-5 melanoma, in the assay with EKVX NSCLC, in the assay on A498 renal and in the assay on HS 578T breast was above 25 µM each time.
Regarding `c1ccc(CN2COc3c(ccc4c5c(ccc34)CN(Cc3ccccc3)CO5)C2)cc1`, the TGI in the assay on HT29 colon, in the assay with SK-OV-3 ovarian, with ACHN renal, in the assay with HCT-15 colon, in the assay with HL-60(TB) leukemia and with MDA-MB-435 was above 100 µM each time. Besides, the TGI with SK-MEL-5 melanoma, in the assay on EKVX NSCLC, in the assay on A498 renal and in the assay on HS 578T breast was above 100 µM each time.
As to `CN(C)c1nc(N)c(C#N)c(C#N)c1C#N`, the TGI in the assay with HT29 colon is above 10 µM; in the assay with SK-OV-3 ovarian, above 10 µM; with ACHN renal it was above 10 µM; in the assay with HCT-15 colon, above 10 µM; in the assay with HL-60(TB) leukemia it was above 6.07 µM; with MDA-MB-435 it was above 10 µM. The TGI in the assay with SK-MEL-5 melanoma, in the assay with EKVX NSCLC, in the assay with A498 renal and in the assay on HS 578T breast was above 10 µM each time.

The record behind these values is PubChem BioAssay (NCI).
